pIC50: −log10 of the molar value.
Legend:
[1] = system: steroidogenesis in H295R cells; assay type: cell-based, human; details: 48 h; for effect on steroid hormone levels compared with vehicle-treated controls: highest noncytotoxic exposure concentration
Protocol: All experiments were performed using cells in passages 5 to 10. First, the highest noncytotoxic concentration (<10% decrease in viability) was determined for each compound with MTT assays. Next, the levels of 13 steroid hormones were determined in the medium after exposure of the H295R cells to the highest noncytotoxic concentration using LC-MS/MS. These concentrations were tested in triplicate (n = 3) in 3 independent experiments (N = 3), and all 9 samples were measured in LC-MS/MS. […] These dilution series were tested in 3 independent experiments (N = 3), with triplicate exposures in each of these experiments (n = 3). Supernatants of the triplicate exposures per experiment were pooled after the 48 h of exposure and the 3 pooled samples were measured with LC-MS/MS. This was done to keep the number of LC-MS/MS measurements manageable.
The exposure medium was prepared by diluting stock solutions 1,000× in the cell culture medium to obtain a final concentration of 0.1% of the solvent. Exposure was started by replacing cell culture medium with the exposure medium. […] On a separate quality control plate, cells were exposed to 10 μM forskolin (Sigma-Aldrich) and 1 μM prochloraz (Sigma-Aldrich) to serve as positive control for increased and decreased steroid hormone secretion, respectively. Exposure was started by replacing the culture medium in the cell culture plates with the exposure medium.
After 48 h of exposure, the supernatant medium from each well was transferred to the wells of a clean 48-well plate, and that plate was stored at −80 °C for later steroid measurement. MTT assays were performed by adding 500 μl of 0.5 mg/ml MTT (3-(4,5-dimethylthiazol-2-yl)-2,5-diphenyltetrazolium bromide; Sigma-Aldrich) solution in medium to each well of the 24-well cell culture plate and incubating for 1 h at 37 °C with 5% CO2. After incubation, the MTT solution was discarded and 500 μl of DMSO was added to each well to lyse the cells and dissolve the formazan crystals. Plates were shaken at 700 rpm for 10 min and absorbance was measured at 560 nm wavelength.
Hormones were concentrated from supernatants by solid phase extraction using Bond Elut Plexa cartridges, 30 mg sorbent, 1.8 ml (Agilent Technologies, Santa Clara, CA, United States). The cartridges were conditioned with 1 ml of 0.5% formic acid in methanol, and subsequent addition of 1 ml of 0.5% formic acid in water. A mix of 100 μl of H295R medium sample in 1 ml of 2% formic acid in water and 50 μl of isotopically labeled internal standards mix (Table S1) was loaded on the cartridges. These were then washed with 1 ml of water followed by 1 ml of water–methanol mixture (70:30, v/v). Cartridges were dried by vacuum and the hormones were eluted with 700 μl of methanol into 96-well-deep well polypropylene plates. Eluates were evaporated to dryness during approximately 2 h in a refrigerated CentriVap vacuum concentrator and reconstituted in 150 μl of water–methanol mixture (1:1, v/v). Additionally, a serial 12-point dilution series of a mix of native steroid hormones was prepared to fit a calibration curve in order to quantify steroid concentrations.
The steroid hormones were separated prior to MS measurements on a Kinetex C18 LC Column (2.6 μm, 100 × 2.1 mm; Phenomenex, CA, United States) coupled to an Exion LC system (SCIEX, Framingham, MA, United States). The mobile phase consisted of 0.2 mM NH4F in water and pure methanol and was delivered at a flow rate of 0.6 ml/min in a gradient elution mode. The injection volume was 10 μl.
The LC-MS/MS raw data were processed using AB Sciex OS Analyst version 1.6.2 (SCIEX, Framingham, MA, United States) to calculate fold changes by dividing the measured hormone concentrations by the hormone concentrations in the vehicle controls. The fold changes were used to fit a concentration–response curve in GraphPad Prism using the same model as in the reporter gene assays, and the ECIR1.5 was estimated for each compound.

[2] = biological target: T1, human transthyretin (TTR) (Homo sapiens, UniProt P02766); test: FITC-T4 TTR-binding assay, initial (original) method; details: for IC10 competing with FITC-T4 for binding to TTR / pIC50: initial method, 110 nM FITC-T4, 30 nM TTR; for pIC50: read-out: IC50 competing with FITC-T4 for binding to TTR
Protocol: (§1) All incubations were performed at room temperature.
(§2) Fluorescence enhancement was determined for each well by subtracting its relative fluorescence units (RFU) before TTR addition from its RFUs after TTR addition. The resulting values were normalized to percentages of the vehicle control. A concentration–response curve was fitted through the data using the same model as in the reporter gene assays.
After 15 min of incubation, fluorescence was measured and fluorescence enhancement was calculated by subtracting RFU without TTR from RFU with TTR. Further data analysis was similar to the screening assays.

[3] = biological target: T1, human transthyretin (TTR); test: FITC-T4 TTR-binding assay, screening method; details: screening method; read-out: IC50 TTR-binding assay, Screening Method
Protocol: as §1
In the screening tests, 48 μl of Tris-HCl buffer (pH 8.0) was added to each well of black low-binding 96-well plates. Two microliters of each test compound dissolved in their respective solvent was added to each well and the plate was shaken at 600 rpm for 5 min. […] Fluorescence was measured again to check for possible autofluorescence or quenching by the test compound.
as §2

## CC(C)(C)[C@@H](O)[C@@H](Cc1ccc(Cl)cc1)n1cncn1 (racemic) [Paclobutrazol]
[1]; H295R
  increased levels of progesterone and 17α-OH-progesterone compared with vehicle-treated controls: up to 3.5 fold
[1]
  effect on steroid hormone levels compared with vehicle-treated controls: increased levels of progesterone and decreased levels of androgens, estrogens, and corticosteroids

## NC(Cc1cc(I)c(Oc2cc(I)c(O)c(I)c2)c(I)c1)C(=O)O (stereo not shown) [T4, thyroxine, reference compound]
[2]
  IC10 competing with FITC-T4 for binding to TTR: 0.0024 µM

## O=S(=O)(O)C(F)(F)C(F)(F)C(F)(F)C(F)(F)C(F)(F)C(F)(F)C(F)(F)C(F)(F)F [PFOS, Perfluorooctane sulfonic acid]
[2]; 0.1 uM
  % FITCT4 bound to TTR: 75.2122%
[2]; 0.3 uM
  % FITCT4 bound to TTR: 36.6572%
[2]; 1 uM
  % FITCT4 bound to TTR: 10.1163%
[2]; 3 uM
  % FITCT4 bound to TTR: 2.093%
[2]; 10 uM
  % FITCT4 bound to TTR: 0.8236%
[2]; 30 uM
  % FITCT4 bound to TTR: 1.548%
[2]; 100 uM
  % FITCT4 bound to TTR: -1.121%
[2]
  IC10 competing with FITC-T4 for binding to TTR: 0.047 µM
  pIC50: 6.68
[3]
  pIC50: 6.72

## O=C(O)C(F)(F)C(F)(F)C(F)(F)C(F)(F)C(F)(F)F [PFHxA, Perfluorohexanoic acid]
[2]; 0.1 uM
  % FITCT4 bound to TTR: 90.7115%
[2]; 0.3 uM
  % FITCT4 bound to TTR: 81.4177%
[2]; 1 uM
  % FITCT4 bound to TTR: 77.1918%
[2]; 3 uM
  % FITCT4 bound to TTR: 44.5805%
[2]; 10 uM
  % FITCT4 bound to TTR: 21.8899%
[2]; 30 uM
  % FITCT4 bound to TTR: 12.6684%
[2]; 100 uM
  % FITCT4 bound to TTR: 2.971%
[2]
  IC10 competing with FITC-T4 for binding to TTR: 0.20 µM
  pIC50: 5.59
[3]
  pIC50: 5.60

## CC(C)Nc1nc(N)nc(Cl)n1 [Deethyl-atrazine]
[1]
  effect on steroid hormone levels compared with vehicle-treated controls: increased levels of progestogens, androgens, estrogens, and corticosteroids

## Cc1cccc2[nH]nnc12 [4-methylbenzotriazole, 4-Methylbenzotriazole]
[2]; 0.1 uM
  % FITCT4 bound to TTR: 96.4305%
[2]; 0.3 uM
  % FITCT4 bound to TTR: 93.5915%
[2]; 1 uM
  % FITCT4 bound to TTR: 89.9761%
[2]; 3 uM
  % FITCT4 bound to TTR: 82.6096%
[2]; 10 uM
  % FITCT4 bound to TTR: 67.1205%
[2]; 30 uM
  % FITCT4 bound to TTR: 47.648%
[2]; 100 uM
  % FITCT4 bound to TTR: 21.2593%
[2]
  IC10 competing with FITC-T4 for binding to TTR: 1.3 µM
  pIC50: 4.63
[3]
  pIC50: 4.58

— article PMC11589101, “Profiling the endocrine-disrupting properties of triazines, triazoles, and short-chain PFAS” (Toxicological Sciences, 2024)
